Molecular target: T1, p300 (Homo sapiens, UniProt Q09472)
T1 construct: host or cells: A549 P300 HiBit cells
Experiment: P300 degradation, HiBit technology in A549 P300 HiBit cells (2 h)
Type: cell-based
Details: 2 hrs post treatment; for Dmax: A549, A549 P300 HiBit cells; for DC50: A549 P300 HiBit cells
Summary of the method: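 HiBiT knock-in A549 cells received compound in serial dilution at 37 °C under 5% CO2. Remaining tagged protein was quantified by lytic HiBiT luminescence after 10 min shaking at room temperature, yielding potency and maximal degradation.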

T1 sequence (Q09472 whole entry): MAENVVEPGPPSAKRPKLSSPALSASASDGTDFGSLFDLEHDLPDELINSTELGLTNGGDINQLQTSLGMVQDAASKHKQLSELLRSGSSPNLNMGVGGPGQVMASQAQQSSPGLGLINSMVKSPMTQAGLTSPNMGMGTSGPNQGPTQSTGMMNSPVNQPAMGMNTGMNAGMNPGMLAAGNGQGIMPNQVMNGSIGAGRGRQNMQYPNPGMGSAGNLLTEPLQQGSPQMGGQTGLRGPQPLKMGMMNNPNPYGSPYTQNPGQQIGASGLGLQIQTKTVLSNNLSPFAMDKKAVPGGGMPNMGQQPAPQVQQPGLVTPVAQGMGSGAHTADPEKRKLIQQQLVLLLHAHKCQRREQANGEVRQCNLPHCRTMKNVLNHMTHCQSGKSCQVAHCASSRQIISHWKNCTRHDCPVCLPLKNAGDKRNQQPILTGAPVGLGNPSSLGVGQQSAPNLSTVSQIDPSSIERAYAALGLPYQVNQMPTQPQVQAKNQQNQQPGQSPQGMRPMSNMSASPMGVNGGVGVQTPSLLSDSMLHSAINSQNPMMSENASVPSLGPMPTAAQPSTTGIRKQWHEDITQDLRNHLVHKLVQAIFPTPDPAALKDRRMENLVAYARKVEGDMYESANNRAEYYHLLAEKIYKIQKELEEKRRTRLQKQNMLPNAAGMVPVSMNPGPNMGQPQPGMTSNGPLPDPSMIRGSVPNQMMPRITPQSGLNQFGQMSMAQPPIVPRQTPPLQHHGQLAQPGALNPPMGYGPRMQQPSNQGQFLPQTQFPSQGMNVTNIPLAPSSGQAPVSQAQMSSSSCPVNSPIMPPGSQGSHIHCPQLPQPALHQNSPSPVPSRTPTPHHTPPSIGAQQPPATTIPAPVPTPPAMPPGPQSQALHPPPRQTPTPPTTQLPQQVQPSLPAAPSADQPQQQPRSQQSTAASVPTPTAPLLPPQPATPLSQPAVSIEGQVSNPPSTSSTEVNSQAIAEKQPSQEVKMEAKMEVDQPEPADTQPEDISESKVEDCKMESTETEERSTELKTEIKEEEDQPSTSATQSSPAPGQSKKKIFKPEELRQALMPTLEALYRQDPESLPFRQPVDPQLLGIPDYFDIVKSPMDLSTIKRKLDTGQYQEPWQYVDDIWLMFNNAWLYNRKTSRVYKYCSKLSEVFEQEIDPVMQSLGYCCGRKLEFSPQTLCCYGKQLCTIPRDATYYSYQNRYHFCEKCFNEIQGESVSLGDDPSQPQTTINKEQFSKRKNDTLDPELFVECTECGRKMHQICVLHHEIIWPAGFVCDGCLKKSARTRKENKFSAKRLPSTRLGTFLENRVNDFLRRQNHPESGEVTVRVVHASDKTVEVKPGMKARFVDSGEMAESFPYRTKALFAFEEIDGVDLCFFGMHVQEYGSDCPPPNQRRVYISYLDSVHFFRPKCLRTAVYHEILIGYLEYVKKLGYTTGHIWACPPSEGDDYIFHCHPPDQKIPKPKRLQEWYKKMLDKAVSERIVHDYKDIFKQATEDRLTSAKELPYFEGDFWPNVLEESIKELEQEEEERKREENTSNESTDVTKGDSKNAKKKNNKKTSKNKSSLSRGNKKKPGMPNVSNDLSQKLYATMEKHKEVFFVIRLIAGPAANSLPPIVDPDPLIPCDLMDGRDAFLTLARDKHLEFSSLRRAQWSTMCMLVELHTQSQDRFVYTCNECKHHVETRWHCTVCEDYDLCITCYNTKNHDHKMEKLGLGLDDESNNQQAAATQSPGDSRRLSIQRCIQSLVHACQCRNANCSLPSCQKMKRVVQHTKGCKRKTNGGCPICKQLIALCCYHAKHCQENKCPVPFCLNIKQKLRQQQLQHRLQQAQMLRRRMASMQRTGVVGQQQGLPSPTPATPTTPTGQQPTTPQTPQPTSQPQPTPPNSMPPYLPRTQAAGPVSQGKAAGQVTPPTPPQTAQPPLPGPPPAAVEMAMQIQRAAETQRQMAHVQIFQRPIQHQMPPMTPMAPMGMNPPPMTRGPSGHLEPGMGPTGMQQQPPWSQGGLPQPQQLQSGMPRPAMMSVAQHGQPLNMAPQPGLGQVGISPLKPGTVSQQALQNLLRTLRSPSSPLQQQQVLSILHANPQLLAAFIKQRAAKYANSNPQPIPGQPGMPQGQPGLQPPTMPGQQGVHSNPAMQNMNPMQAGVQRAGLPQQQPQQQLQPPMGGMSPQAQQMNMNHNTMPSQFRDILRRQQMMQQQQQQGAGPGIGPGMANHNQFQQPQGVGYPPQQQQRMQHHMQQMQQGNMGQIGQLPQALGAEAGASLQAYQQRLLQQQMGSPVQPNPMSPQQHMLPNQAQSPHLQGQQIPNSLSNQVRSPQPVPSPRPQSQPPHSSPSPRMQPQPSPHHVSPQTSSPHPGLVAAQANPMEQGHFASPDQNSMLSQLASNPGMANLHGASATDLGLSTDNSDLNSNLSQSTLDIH

| SMILES | Dmax | DC50 |
| --- | --- | --- |
| Cn1c(=O)n(C)c2cc(N3CCOc4nc(-c5ccc(C(=O)NCC#Cc6ccn7ncc(C8CCC(=O)NC8=O)c7c6)nc5)ncc43)ccc21 (centres unmarked) [Example A246, 5-(5-(1,3-dimethyl-2-oxo-2,3-dihydro-1H-benzo[d]imidazol-5-yl)-6,7-dihydro-5H-pyrimido[4,5-b][1,4]oxazin-2-yl)-N-(3-(3-(2,6-dioxopiperidin-3-yl)pyrazolo[1,5-a]pyridin-5-yl)prop-2-yn-1-yl)picolinamide] | 40 to 59% | 1 to 9.9 nM |
| CC(C)c1cc(N(C)c2cnc(-c3ccc(C(=O)NCC#Cc4ccc5occ(C6CCC(=O)NC6=O)c5c4)nc3)cn2)cc2c1n(C)c(=O)n2C (centres unmarked) [Example A59, N-(3-(3-(2,6-dioxopiperidin-3-yl)benzofuran-5-yl)prop-2-yn-1-yl)-5-(5-((7-isopropyl-1,3-dimethyl-2-oxo-2,3-dihydro-1H-benzo [d]imidazol-5-yl)(methyl)amino)pyrazin-2-yl)picolinamide] | > 80% | 1 to 9.9 nM |
| Cn1c(=O)n(C)c2ncc(-c3cccc4cc(-c5ccc(C(=O)NCC#Cc6ccc7occ(C8CCC(=O)NC8=O)c7c6)nc5)ncc34)cc21 (centres unmarked) [Example A157, 5-(8-(1,3-dimethyl-2-oxo-2,3-dihydro-1H-imidazo[4,5-b]pyridin-6-yl)isoquinolin-3-yl)-N-(3-(3-(2,6-dioxopiperidin-3-yl)benzofuran-5-yl)prop-2-yn-1-yl)picolinamide] | > 80% | 1 to 9.9 nM |
| CCc1cc(N(C)c2ccn(-c3cnc(C(=O)NCC#Cc4cccc(NC5CCC(=O)NC5=O)c4)c(C)c3)c(=O)c2)c2cc(C)c(=O)n(C)c2c1 (centres unmarked) [Example B152, N-(3-(3-((2,6-dioxopiperidin-3-yl)amino)phenyl)prop-2-yn-1-yl)-4-((7-ethyl-1,3-dimethyl-2-oxo-1,2-dihydroquinolin-5-yl) (methyl)amino)-5′-methyl-2-oxo-2H-[1,3′-bipyridine]-6′-carboxamide] | > 80% | 1 to 9.9 nM |
| Cn1c(=O)oc2cc(N3CCOc4nc(-c5ccc(C(=O)NCC#Cc6ccc7occ(C8CCC(=O)NC8=O)c7c6)nc5)ncc43)ccc21 (centres unmarked) [Example A144, N-(3-(3-(2,6-dioxo-piperidin-3-yl)benzofuran-5-yl)prop-2-yn-1-yl)-5-(5-(3-methyl-2-oxo-2,3-dihydrobenzo[d]oxazol-6-yl)-6,7-dihydro-5H-pyrimido [4,5-b][1,4]oxazin-2-yl)picolinamide] | < 20% | > 1000 nM |
| Cn1c(=O)n(C)c2c(C3CCOCC3)nc(N3CCCc4nc(-c5ccc(C(=O)NCC#Cc6ccc7occ(C8CCC(=O)NC8=O)c7c6)nc5)ncc43)cc21 (centres unmarked) [Example A78, 5-(5-(1,3-dimethyl-2-oxo-4-(tetrahydro-2H-pyran-4-yl)-2,3-dihydro-1H-imidazo[4,5-c]pyridin-6-yl)-5,6,7,8-tetrahydro-pyrido[3,2-d]pyrimidin-2-yl)-N-(3-(3-(2,6-dioxopiperidin-3-yl)benzofuran-5-yl)prop-2-yn-1-yl)picolinamide] | < 20% | > 1000 nM |
| CC(C)c1nc(N2CCCc3nc(-c4ccc(C(=O)NCC#Cc5ccc6occ(C7CCC(=O)NC7=O)c6c5)nc4)ncc32)cc2c1n(C)c(=O)n2C (centres unmarked) [Example A76, N-(3-(3-(2,6-dioxopiperidin-3-yl)benzofuran-5-yl)prop-2-yn-1-yl)-5-(5-(4-isopropyl-1,3-dimethyl-2-oxo-2,3-dihydro-1H-imidazo[4,5-c]pyridin-6-yl)-5,6,7,8-tetrahydropyrido[3,2-d]pyrimidin-2-yl)picolinamide] | < 20% | > 1000 nM |
| Cn1c(=O)n(C)c2c(N3CCC3)nc(-c3cccc4cc(-c5ccc(C(=O)NCC#Cc6cc7c(C8CCC(=O)NC8=O)cccc7o6)nc5)ncc34)cc21 (centres unmarked) [Example A205, 5-(8-(4-(azetidin-1-yl)-1,3-dimethyl-2-oxo-2,3-dihydro-1H-imidazo[4,5-c]pyridin-6-yl)iso-quinolin-3-yl)-N-(3-(4-(2,6-dioxopiperidin-3-yl)benzofuran-2-yl)prop-2-yn-1-yl)picolinamide] | > 80% | 1 to 9.9 nM |
| Cn1c(=O)n(C)c2c(C3CCS(=O)(=O)CC3)nc(N3CCCc4cc(-c5ccc(C(=O)NCC#Cc6ccc7occ(C8CCC(=O)NC8=O)c7c6)nc5)c(C(F)F)cc43)cc21 (centres unmarked) [Example A140, 5-(7-(difluoromethyl)-1-(4-(1,1-dioxido-tetrahydro-2H-thio-pyran-4-yl)-1,3-dimethyl-2-oxo-2,3-dihydro-1H-imidazo[4,5-c]pyridin-6-yl)-1,2,3,4-tetrahydroquinolin-6-yl)-N-(3-(3-(2,6-dioxopiperidin-3-yl)benzofuran-5-yl)prop-2-yn-1-yl)picolinamide] | 40 to 59% | 1 to 9.9 nM |
| Cn1c(=O)n(C)c2c(-n3cccn3)nc(-c3cccc4cc(-c5ccc(C(=O)NCC#Cc6ccc7occ(C8CCC(=O)NC8=O)c7c6)nc5)ncc34)cc21 (centres unmarked) [Example A152, 5-(8-(1,3-dimethyl-2-oxo-4-(1H-pyrazol-1-yl)-2,3-dihydro-1H-imidazo[4,5-c]pyridin-6-yl)iso-quinolin-3-yl)-N-(3-(3-(2,6-dioxopiperidin-3-yl)benzofuran-5-yl)prop-2-yn-1-yl)picolinamide] | 20 to 39% | 10 to 99 nM |
| CC(C)c1cc(-c2cccc3cc(-c4ccc(C(=O)NCC#Cc5ccc6c(c5)ncn6C5CCC(=O)NC5=O)nc4)ncc23)cc2c1n(C)c(=O)n2C (centres unmarked) [Example A38, N-(3-(1-(2,6-Dioxopiperidin-3-yl)-1H-benzo[d]imidazol-5-yl)prop-2-yn-1-yl)-5-(8-(7-isopropyl-1,3-dimethyl-2-oxo-2,3-dihydro-1H-benzo[d]imidazol-5-yl)isoquinolin-3-yl)picolinamide] | < 20% | > 1000 nM |
| CCN(c1cnc(-c2ccc(C(=O)NCC#Cc3cc4c(C5CCC(=O)NC5=O)cccc4o3)nc2)nc1)c1cc(C2CCOCC2)c2c(c1)n(C)c(=O)n2C (centres unmarked) [Example A224, 5-(5-((1,3-dimethyl-2-oxo-7-(tetrahydro-2H-pyran-4-yl)-2,3-dihydro-1H-benzo[d]imidazol-5-yl)(ethyl)amino)pyrimidin-2-yl)-N-(3-(4-(2,6-dioxopiperidin-3-yl)benzofuran-2-yl)prop-2-yn-1-yl)picolinamide] | > 80% | 1 to 9.9 nM |
| Cc1cc2c(N3CCN(C)c4cc(-c5ccc(C(=O)NCC#Cc6cc7c(C8CCC(=O)NC8=O)cccc7o6)nc5)ncc43)cccc2n(C)c1=O (centres unmarked) [Example B114, 5-(4-(1,3-dimethyl-2-oxo-1,2-dihydroquinolin-5-yl)-1-methyl-1,2,3,4-tetrahydropyrido [3,4-b]pyrazin-7-yl)-N-(3-(4-(2,6-dioxo-piperidin-3-yl)benzofuran-2-yl)prop-2-yn-1-yl)picolinamide] | > 80% | < 1 nM |
| Cc1cc(-c2cc(N(C)C)c(N(C)c3cc(C4CCOCC4)c4c(c3)n(C)c(=O)n4C)cn2)cnc1C(=O)NCC#Cc1cc2c(C3CCC(=O)NC3=O)cccc2o1 (centres unmarked) [Example A198, 5-((1,3-dimethyl-2-oxo-7-(tetrahydro-2H-pyran-4-yl)-2,3-dihydro-1H-benzo[d]imidazol-5-yl)(methyl)amino)-4-(dimethylamino)-N-(3-(4-(2,6-dioxopiperidin-3-yl)benzofuran-2-yl)prop-2-yn-1-yl)-5′-methyl-[2,3′-bipyridine]-6′-carboxamide] | < 20% | > 1000 nM |
| Cc1cc2c(N3CCN(C)c4nc(-c5ccc(C(=O)NCC#Cc6ccc7occ(C8CCC(=O)NC8=O)c7c6)nc5)ncc43)cccc2n(C)c1=O (centres unmarked) [Example B33, 5-(5-(1,3-dimethyl-2-oxo-1,2-dihydroquinolin-5-yl)-8-methyl-5,6,7,8-tetrahydropteridin-2-yl)-N-(3-(3-(2,6-dioxopiperidin-3-yl)benzofuran-5-yl)prop-2-yn-1-yl)picolinamide] | > 80% | 1 to 9.9 nM |
| Cc1cc2c(N3CCCc4cc(-c5ccc(C(=O)NCC#Cc6ccc7occ(C8CCC(=O)NC8=O)c7c6)nc5)ccc43)cc(C3CCOCC3)cc2n(C)c1=O (centres unmarked) [Example B140, 5-(1′,3′-dimethyl-2′-oxo-7′-(tetrahydro-2H-pyran-4-yl)-1′,2′,3,4-tetrahydro-2H-[1,5′-biquinolin]-6-yl)-N-(3-(3-(2,6-dioxopiperidin-3-yl)benzofuran-5-yl)prop-2-yn-1-yl) picolinamide] | 60 to 79% | 1 to 9.9 nM |
| Cc1cc(N2CCN(C)c3cc(-c4ccc(C(=O)NCC#Cc5cc6c(C7CCC(=O)NC7=O)cccc6o5)nc4)ncc32)c2cc(C)c(=O)n(C)c2c1 (centres unmarked) [Example B40, N-(3-(4-(2,6-dioxopiperidin-3-yl)benzofuran-2-yl)prop-2-yn-1-yl)-5-(1-methyl-4-(1,3,7-trimethyl-2-oxo-1,2-dihydroquinolin-5-yl)-1,2,3,4-tetrahydropyrido[3,4-b]pyrazin-7-yl) picolinamide] | > 80% | < 1 nM |
| CC(C)c1cc(C2CC(C)(C)Oc3cc(-c4ccc(C(=O)NCC#Cc5ccc6occ(C7CCC(=O)NC7=O)c6c5)nc4)c(F)cc32)cc2c1n(C)c(=O)n2C (centres unmarked) [Example A85, N-(3-(3-(2,6-dioxo-piperidin-3-yl)benzofuran-5-yl)prop-2-yn-1-yl)-5-(6-fluoro-4-(7-isopropyl-1,3-dimethyl-2-oxo-2,3-dihydro-1H-benzo [d]imidazol-5-yl)-2,2-dimethylchroman-7-yl)picolinamide] | > 80% | 1 to 9.9 nM |
| COC1CN(c2cc3c(cc(C)c(=O)n3C)c(-c3cccc4cc(-c5ccc(C(=O)NCC#Cc6ccc7occ(C8CCC(=O)NC8=O)c7c6)nc5)ncc34)n2)C1 (centres unmarked) [Example B146, N-(3-(3-(2,6-dioxopiperidin-3-yl)benzofuran-5-yl)prop-2-yn-1-yl)-5-(8-(7-(3-methoxyazetidin-1-yl)-1,3-dimethyl-2-oxo-1,2-dihydro-1,6-naphthyridin-5-yl)isoquinolin-3-yl) picolinamide] | > 80% | 1 to 9.9 nM |

From patent US20250114345A1, “COMPOUNDS AND COMPOSITIONS AS CBP/P300 DEGRADERS AND USES THEREOF” (Oncopia Therapeutics, Inc. d/b/a/ SK Life Science Labs, priority 2023, published 2025)
